Ends that are not written are not given here.
What follows are compounds tested on hypothalamic cells of the apoaequorin-expressing mice (assay: Intracellular calcium ion increase (aequorin luminescence), hypothalamus). Settings: 5 μmol/L peptide, added at 25 seconds.
Format: cell-based, mouse
Description: (§1) A hypothalamus, pituitary gland, kidney, heart, blood vessel, or a portion of brain tissue is collected from transgenic mice systemically expressing apoaequorin (WO02/010371) produced by introducing an apoaequorin gene expression vector into fertilized eggs. The obtained hypothalamus, pituitary gland, kidney, heart, blood vessel, or brain tissue is cut finely into pieces, suspended in a medium containing coelenterazine, and then incubated to incorporate coelenterazine into the cells to form aequorin (a complex of apoaequorin and coelenterazine). Since aequorin luminesces upon binding to intracellular calcium ions, the relative luminescence level in cells before and after addition of a medium containing the peptide or a pharmaceutically acceptable salt thereof is measured in a luminometer every second over time and is used as an indicator of intracellular calcium ion concentration. Increase in the relative luminescence level due to addition of the peptide or pharmaceutically acceptable salt thereof confirms that the peptide or pharmaceutically acceptable salt thereof has the activity to increase intracellular calcium ion concentration.
(§2) Whether Peptides 1 to 8 synthesized in Example 2 have the activity of increasing intracellular calcium ion concentration was investigated using the organs of transgenic mice introduced with the apoaequorin gene and systemically expressing apoaequorin (hereinafter referred to as apoaequorin-expressing mice). In apoaequorin-expressing mouse cells, light is emitted when apoaequorin binds to a calcium ion in the presence of the luminescent substrate coelenterazine and thus the intracellular calcium ion concentration can be monitored. Patent Document (WO02/010371) discloses the method for producing apoaequorin-expressing mice, method for evaluating biologically active substances that use biological samples derived from the mice, and experimental results of evaluating biologically active peptides using the mouse organs as shown below. […] Therefore, apoaequorin-expressing mice can be used in the evaluation of the physiological activities of novel peptides.
(§3) Apoaequorin-expressing mice were produced according to the method disclosed in Reference Example 4 of Patent Document (WO02/010371). The apoaequorin-expressing mice were sacrificed, individual organs including thymus, hypothalamus, spleen, bone, aorta, heart, kidney, adrenal gland, pancreas, pituitary gland, uterus, medulla oblongata, and spinal cord were removed; and each of the organs was cut into small cubes of approximately 1 to 2 mm^3. Next, in 5-mL tubes (Rohren-Tubes; manufactured by Sarstedt, No. 55.476), three portions of each of the prepared organs were added to 50 μL of a 10 μmol/L solution of coelenterazine (manufactured by Molecular Probes) dissolved in RPMI 1640 medium, and these were cultured at 37° C. for three hours. After culturing, RPMI 1640 medium was added, and then Peptides 1 to 5 dissolved in RPMI 1640 medium were added 25 seconds after the addition of RPMI 1640 until each peptide had final concentrations of 1 μmol/L and of 5 μmol/L, and the relative luminescence levels were measured every second immediately after the addition of RPMI 1640 medium by using a luminometer (AutoLumat LB953, manufactured by Berthold).

Compound | increase of intracellular calcium concentration in hypothalamic cells (RLU per second)
Peptide 9: amino acid sequence at position 554 to 577 in human VGF (TLQPPSALRRRHYHHALPPSRHYP; synthetic Peptide 9, VGF-related peptide, human VGF positions 554-577) | increase of intracellular calcium concentration

Same assay, conditions: peptide at final concentrations of 1 μmol/L and 5 μmol/L

Compound | luminescence (intracellular calcium ion increase) in hypothalamus
Peptide 9: amino acid sequence at position 554 to 577 in human VGF (TLQPPSALRRRHYHHALPPSRHYP; synthetic Peptide 9, VGF-related peptide, human VGF positions 554-577) | luminescence was observed

What follows are compounds tested on pituitary cells of the apoaequorin-expressing mice (assay: Intracellular calcium ion increase (aequorin luminescence), pituitary gland). Settings: 5 μmol/L peptide, added at 25 seconds.
Format: cell-based, mouse
Description: as §1, §2, §3

Compound | increase of intracellular calcium concentration in pituitary cells (RLU per second)
Peptide 9: amino acid sequence at position 554 to 577 in human VGF (TLQPPSALRRRHYHHALPPSRHYP; synthetic Peptide 9, VGF-related peptide, human VGF positions 554-577) | increase of intracellular calcium concentration

Same assay, conditions: peptide at final concentrations of 1 μmol/L and 5 μmol/L

Compound | luminescence (intracellular calcium ion increase) in pituitary gland
Peptide 9: amino acid sequence at position 554 to 577 in human VGF (TLQPPSALRRRHYHHALPPSRHYP; synthetic Peptide 9, VGF-related peptide, human VGF positions 554-577) | luminescence was observed

What follows are compounds tested on antiserum against ESPGPERVW peptide of human VGF (assay: not given). Settings: 1, 10, and 100 pmol of the peptides.
Format: binding
Description: Namely, to 100 μL of antiserum diluted 9×10^5 folds with RIA buffer, 100 μL of RIA buffer containing a fixed amount of [^125I]-labeled Peptide 1 (approximately 20000 cpm, 500-550 Bq, approximately 9 fmol in terms of peptide amount) and 100 μL of RIA buffer solutions each containing a sequentially diluted VGF-derived peptide were added, this was incubated at 4° C. for 40 hours, and the labeled Peptide 1 and VGF-derived peptide were competitively bound to the antibody in the antiserum. As controls, reactions that use RIA buffer instead of the antiserum to measure non-specific binding, and reactions that use RIA buffer instead of VGF-derived peptide solutions to measure the maximum binding level were carried out. Reactions for non-specific binding were performed in quadruplicates, and the other reactions were performed in duplicates, and for each of the reactants, the immune complex was precipitated as in the above-mentioned antibody titer measurements, and its radioactivity (cpm) was measured. The average radioactivity of non-specific binding reaction is defined as non-specific binding level N, the radioactivity value for each VGF-derived peptide addition reaction is defined as Y, and the radioactivity value of maximum binding reaction is defined as Z. The percentage ratio (B/B0) of antiserum specific binding level (B) with peptide addition to the maximum binding level (B0), was determined using the following formula.
B/B0(%)={(Y−N)/(Z−N)}×100
Accordingly, the amount of peptide that achieves 50% B/B0, more specifically, the amount of peptide that yields 50% inhibition of the maximum binding level, was used as an indicator of the peptide binding activity to the antiserum.

Compound | inhibition of binding of the antiserum to labeled peptide
glucagon | none of these peptides showed inhibition
secretin | none of these peptides showed inhibition
neuropeptide Y | none of these peptides showed inhibition
NC(=O)CC[C@@H]1NC(=O)[C@H](Cc2ccccc2)NC(=O)[C@H](Cc2ccc(O)cc2)NC(=O)[C@@H](N)CSSC[C@@H](C(=O)N2CCC[C@H]2C(=O)N[C@@H](CCCN=C(N)N)C(=O)NCC(N)=O)NC(=O)[C@H](CC(N)=O)NC1=O [vasopressin] | none of these peptides showed inhibition
Leu-enkephalin | none of these peptides showed inhibition
PAMP-20 | none of these peptides showed inhibition
corticotropin-releasing factor | none of these peptides showed inhibition
CC[C@H](C)[C@@H]1NC(=O)[C@H](CCCNC(=N)N)NC(=O)[C@H](CC(=O)O)NC(=O)[C@H](CCSC)NC(=O)[C@H](CCCNC(=N)N)NC(=O)CNC(=O)CNC(=O)[C@H](Cc2ccccc2)NC(=O)[C@@H](NC(=O)[C@H](CO)NC(=O)[C@H](CO)NC(=O)[C@H](CCCNC(=N)N)NC(=O)[C@H](CCCNC(=N)N)NC(=O)[C@H](CC(C)C)NC(=O)[C@@H](N)CO)CSSC[C@@H](C(=O)N[C@@H](CC(N)=O)C(=O)N[C@@H](CO)C(=O)N[C@@H](Cc2ccccc2)C(=O)N[C@@H](CCCNC(=N)N)C(=O)N[C@@H](Cc2ccc(O)cc2)C(=O)O)NC(=O)CNC(=O)[C@H](CC(C)C)NC(=O)CNC(=O)[C@H](CO)NC(=O)[C@H](CCC(N)=O)NC(=O)[C@H](C)NC(=O)CNC1=O [atrial natriuretic peptide] | none of these peptides showed inhibition
melanin-concentrating hormone | none of these peptides showed inhibition
calcitonin | none of these peptides showed inhibition
neuromedin U-8 | none of these peptides showed inhibition
calcitonin receptor-stimulating peptide | none of these peptides showed inhibition
peptide HI: non-VGF peptide (HADGVFTSDYSRLLGQISAKKYLESLI; ends and bridges not checked; UniProt P01283 81-107, looked up) | none of these peptides showed inhibition
melanocyte-stimulating hormone | none of these peptides showed inhibition
Met-enkephalin-Arg-Gly-Leu (YGGFMRGL) [non-VGF peptide] | none of these peptides showed inhibition
adrenomedullin | none of these peptides showed inhibition

Same assay, conditions: antiserum diluted 9×10^5 folds, [125I]-labeled peptide approximately 9 fmol

Compound | amount of the peptide that yields 50% inhibition of the maximum binding level (B/B0 50%)
ESPGPERVW | 9.0 fmol

Source: US20100075343A1, “NOVEL PEPTIDES” (priority 2007, published 2010)
